In patent publication US9265773B2, “Tetracyclic heterocycle compounds and methods of use thereof for the treatment of viral diseases” (priority 2011, dated 2016):

How the values were obtained:
HCV replicon genotype 1b = assay: microbe, parasite or virus in culture; assay type: cell-based; settings: genotype 1b replicon cells, incubated 96 hours, NS3/4A ELISA readout
HCV replicon genotype 1a = assay: microbe, parasite or virus in culture; assay type: cell-based; settings: genotype 1a replicon cells, incubated 96 hours, NS3/4A ELISA readout

CNC(=O)c1c(-c2ccc(F)cc2)oc2cc(N(C)S(C)(=O)=O)c(-c3ccc4c(n3)-c3[nH]c5ncccc5c3CO4)cc12 [Compound 52, 5-(6,11-dihydropyrido[2″,3″:5′,6′]pyrano[3′,4′:4,5]pyrrolo[2,3-b]pyridin-2-yl)-2-(4-fluorophenyl)-N-methyl-6-[methyl(methylsulfonyl)amino]-1-benzofuran-3-carboxamide]
IC50 (HCV replicon genotype 1b; Hepatitis C virus, 96 h): 2.7 nM | IC50 (HCV replicon genotype 1a; Hepatitis C virus, 96 h): 1.7 nM

CNC(=O)c1c(-c2ccc(F)cc2)oc2cc(N(C)S(C)(=O)=O)c(-c3ccc4c(n3)-c3cc5ccc(F)cc5n3CO4)cc12 [Compound 17]
IC50 (HCV replicon genotype 1b; Hepatitis C virus, 96 h): 3.9 nM | IC50 (HCV replicon genotype 1a; Hepatitis C virus, 96 h): 4 nM

CNC(=O)c1c(-c2ccc(F)cc2)oc2cc(N(C)S(C)(=O)=O)c(-c3ccc4c(c3)-c3cc5ccccc5n3CC(C)(O)CO4)cc12 (stereo not shown) [Compound 78, 2-(4-fluorophenyl)-5-(7-hydroxy-7-methyl-7,8-dihydro-6H-benzo[2,3][1,5]oxazocino[5,4-a]indol-2-yl)-N-methyl-6-(N-methylmethylsulfonamido)benzofuran-3-carboxamide]
IC50 (HCV replicon genotype 1b; Hepatitis C virus, 96 h): 3.5 nM | IC50 (HCV replicon genotype 1a; Hepatitis C virus, 96 h): 5.7 nM

CNC(=O)c1c(-c2ccc(F)cc2)oc2cc(N(C)S(C)(=O)=O)c(-c3ccc4oc(=O)n5c6cccc(F)c6cc5c4n3)cc12 [Compound 54, 5-(11-fluoro-6-oxo-6H-pyrido[2′,3′:5,6][1,3]oxazino[3,4-a]indol-2-yl)-2-(4-fluorophenyl)-N-methyl-6-(N-methylmethylsulfonamido)benzofuran-3-carboxamide]
IC50 (HCV replicon genotype 1b; Hepatitis C virus, 96 h): 39 nM | IC50 (HCV replicon genotype 1a; Hepatitis C virus, 96 h): 69 nM

CNC(=O)c1c(-c2ccc(F)cc2)oc2cc(C(=O)OC)c(-c3ccc4c(n3)-c3cc5c(F)cccc5n3CO4)cc12 [Compound 182]
IC50 (HCV replicon genotype 1b; Hepatitis C virus, 96 h): 23 nM | IC50 (HCV replicon genotype 1a; Hepatitis C virus, 96 h): 24 nM

CNC(=O)c1c(-c2ccc(F)cc2)oc2cc(C#N)c(-c3ccc4c(n3)-c3cc5c(F)cccc5n3CO4)cc12 [Compound 180, 6-cyano-5-(11-fluoro-6H-pyrido[2′,3′:5,6][1,3]oxazino[3,4-a]indol-2-yl)-2-(4-fluorophenyl)-N-methylbenzofuran-3-carboxamide]
IC50 (HCV replicon genotype 1b; Hepatitis C virus, 96 h): 5.3 nM | IC50 (HCV replicon genotype 1a; Hepatitis C virus, 96 h): 3 nM

CNC(=O)c1c(-c2ccc(F)cc2)oc2cc(N(C)S(C)(=O)=O)c(-c3ccc4c(n3)-c3cc5ccccc5n3CO4)cc12 [Compound 1, 2-(4-fluorophenyl)-N-methyl-6-(N-methylmethylsulfonamido)-5-(6H-pyrido[2′,3′:5,6][1,3]oxazino[3,4-a]indol-2-yl)benzofuran-3-carboxamide]
IC50 (HCV replicon genotype 1b; Hepatitis C virus, 96 h): 4.8 nM | IC50 (HCV replicon genotype 1a; Hepatitis C virus, 96 h): 2.4 nM

CNC(=O)c1c(-c2ccc(F)cc2)oc2cc(N(C)S(C)(=O)=O)c(-c3ccc4c(n3)-c3cc5cccc(C#N)c5n3CO4)cc12 [Compound 18]
IC50 (HCV replicon genotype 1b; Hepatitis C virus, 96 h): 5.4 nM | IC50 (HCV replicon genotype 1a; Hepatitis C virus, 96 h): 9.2 nM

CNC(=O)c1c(-c2ccc(F)cc2)oc2cc(N3CCCC3=O)c(-c3ncc4c(n3)-c3cc5c(F)cccc5n3CO4)cc12 [Compound 170]
IC50 (HCV replicon genotype 1b; Hepatitis C virus, 96 h): 13 nM | IC50 (HCV replicon genotype 1a; Hepatitis C virus, 96 h): 54 nM

CNC(=O)c1c(-c2ccc(F)cc2)oc2cc(N(C)S(C)(=O)=O)c(-c3cc4c(cn3)OCn3c-4nc4cccnc43)cc12 [Compound 138]
IC50 (HCV replicon genotype 1b; Hepatitis C virus, 96 h): 19 nM | IC50 (HCV replicon genotype 1a; Hepatitis C virus, 96 h): 62 nM

CNC(=O)c1c(-c2ccc(F)cc2)oc2cc(N(C)S(C)(=O)=O)c(-c3ncc4c(n3)-c3cc5ccccc5n3CCO4)cc12 [Compound 7]
IC50 (HCV replicon genotype 1b; Hepatitis C virus, 96 h): 1.6 nM | IC50 (HCV replicon genotype 1a; Hepatitis C virus, 96 h): 2.4 nM

CNC(=O)c1c(-c2ccc(F)cc2)oc2cc(N(C)S(C)(=O)=O)c(-c3ccc4c(n3)-c3cc5c(F)cccc5n3C(CNC(=O)[C@@H](NC(=O)OC)C(C)C)O4)cc12 (stereo partly shown) [Compound 125]
IC50 (HCV replicon genotype 1b): 3.4 nM | IC50 (HCV replicon genotype 1a; Hepatitis C virus, 96 h): 5.1 nM

CNC(=O)c1c(-c2ccc(F)cc2)oc2cc(N(C)S(C)(=O)=O)c(-c3ccc4c(n3)-c3cc5c(F)cccc5n3C(CNC(=O)[C@@H]3CCCN3C(=O)OC)O4)cc12 (stereo partly shown) [Compound 126]
IC50 (HCV replicon genotype 1b): 1.4 nM | IC50 (HCV replicon genotype 1a): 2.7 nM

CNC(=O)c1c(-c2ccc(F)cc2)oc2cc(N(C)S(C)(=O)=O)c(-c3ccc4c(c3)-c3nc5cccnc5n3CO4)cc12 [Compound 135]
IC50 (HCV replicon genotype 1b; Hepatitis C virus, 96 h): 2.4 nM | IC50 (HCV replicon genotype 1a; Hepatitis C virus, 96 h): 2.4 nM

CNC(=O)c1c(-c2ccc(F)cc2)oc2cc(N(C)S(C)(=O)=O)c(-c3ccc4c(n3)-c3cc5c(F)cccc5n3C(COC)O4)cc12 (stereo not shown) [Compound 96]
IC50 (HCV replicon genotype 1b): 5.1 nM | IC50 (HCV replicon genotype 1a): 4.1 nM

COC(=O)c1c(-c2ccc(F)cc2)oc2cc(N(C)S(C)(=O)=O)c(-c3ccc4c(n3)-c3cc5c(F)cccc5n3CO4)cc12 [Compound 150, methyl 5-(11-fluoro-6H-pyrido[2′,3′:5,6][1,3]oxazino[3,4-a]indol-2-yl)-2-(4-fluorophenyl)-6-(N-methylmethylsulfonamido)benzofuran-3-carboxylate]
IC50 (HCV replicon genotype 1b; Hepatitis C virus, 96 h): 30 nM | IC50 (HCV replicon genotype 1a; Hepatitis C virus, 96 h): 38 nM

CN(c1cc2oc(-c3ccc(F)cc3)c(-c3ncn[nH]3)c2cc1-c1ccc2c(n1)-c1cc3c(F)cccc3n1CO2)S(C)(=O)=O [Compound 160, N-(5-(11-fluoro-6H-pyrido[2′,3′:5,6][1,3]oxazino[3,4-a]indol-2-yl)-2-(4-fluorophenyl)-3-(1H-1,2,4-triazol-5-yl)benzofuran-6-yl)-N-methylmethanesulfonamide]
IC50 (HCV replicon genotype 1b; Hepatitis C virus, 96 h): 16 nM | IC50 (HCV replicon genotype 1a; Hepatitis C virus, 96 h): 19 nM

CCOC(=O)N(C)C(=O)c1c(-c2ccc(F)cc2)oc2cc(N(C)S(C)(=O)=O)c(-c3ccc4c(n3)-c3cc5c(F)cccc5n3CO4)cc12 [Compound 208, Ethyl (5-(11-fluoro-6H-pyrido[2′,3′:5,6][1,3]oxazino[3,4-a]indol-2-yl)-2-(4-fluorophenyl)-6-(N-methylmethylsulfonamido)benzofuran-3-carbonyl)(methyl)carbamate]
IC50 (HCV replicon genotype 1b; Hepatitis C virus, 96 h): 122 nM | IC50 (HCV replicon genotype 1a; Hepatitis C virus, 96 h): 42 nM

CNC(=O)c1c(-c2ccc(F)cc2)oc2cc(N(C)S(C)(=O)=O)c(-c3ccc4c(n3)-c3cc5c(F)cccc5n3C(COC(=O)[C@@H](NC(=O)OC)C(C)C)O4)cc12 (stereo partly shown) [Compound 103]
IC50 (HCV replicon genotype 1b; Hepatitis C virus, 96 h): 6.9 nM | IC50 (HCV replicon genotype 1a; Hepatitis C virus, 96 h): 3.3 nM

CNC(=O)c1c(-c2ccc(F)cc2)oc2cc(N(C)S(C)(=O)=O)c(-c3ccc4c(n3)-c3cc5cccc(Cl)c5n3CO4)cc12 [Compound 21]
IC50 (HCV replicon genotype 1b; Hepatitis C virus, 96 h): 13 nM | IC50 (HCV replicon genotype 1a; Hepatitis C virus, 96 h): 14 nM

CNC(=O)c1c(-c2ccc(F)cc2)oc2cc(N(C)S(C)(=O)=O)c(-c3ccc4c(n3)-c3cc5c(F)cccc5n3C(C)O4)cc12 (stereo not shown) [Compound 38]
IC50 (HCV replicon genotype 1b): 5.8 nM | IC50 (HCV replicon genotype 1a): 3.2 nM

CNC(=O)c1c(-c2ccc(F)cc2)oc2cc(N(C)S(C)(=O)=O)c(-c3cnc4c(n3)-c3cc5c(C#N)cccc5n3CO4)cc12 [Compound 33]
IC50 (HCV replicon genotype 1b; Hepatitis C virus, 96 h): 1.2 nM | IC50 (HCV replicon genotype 1a; Hepatitis C virus, 96 h): 0.9 nM

CNC(=O)c1c(-c2ccc(F)cc2)oc2cc(N(C)S(C)(=O)=O)c(-c3ccc4c(n3)-c3cc5cc(C#N)cc(F)c5n3CO4)cc12 [Compound 31]
IC50 (HCV replicon genotype 1b; Hepatitis C virus, 96 h): 6.5 nM | IC50 (HCV replicon genotype 1a; Hepatitis C virus, 96 h): 7.2 nM

CNC(=O)c1c(-c2ccc(F)cc2)oc2cc(N(C)S(C)(=O)=O)c(-c3ncc4c(n3)-c3cc5cc(F)ccc5n3CO4)cc12 [Compound 6]
IC50 (HCV replicon genotype 1b; Hepatitis C virus, 96 h): 2.3 nM | IC50 (HCV replicon genotype 1a; Hepatitis C virus, 96 h): 1.5 nM

CNC(=O)c1c(-c2ccc(F)cc2)oc2cc(N(CC(F)F)S(C)(=O)=O)c(-c3ccc4c(n3)-c3cc5c(F)cccc5n3CO4)cc12 [Compound 184, 6-(N-(2,2-difluoroethyl)methylsulfonamido)-5-(11-fluoro-6H-pyrido[2′,3′:5,6][1,3]oxazino[3,4-a]indol-2-yl)-2-(4-fluorophenyl)-N-methylbenzofuran-3-carboxamide]
IC50 (HCV replicon genotype 1b; Hepatitis C virus, 96 h): 6.5 nM | IC50 (HCV replicon genotype 1a; Hepatitis C virus, 96 h): 8.4 nM

CNC(=O)c1c(-c2ccc(F)cc2)oc2cc(N(C)S(C)(=O)=O)c(-c3ccc4c(c3)-c3nc5ccccn5c3CCO4)cc12 [Compound 145, 5-(6,7-dihydrobenzo[2′,3′]oxepino[4′,5′:4,5]imidazo[1,2-a]pyridin-2-yl)-2-(4-fluorophenyl)-N-methyl-6-(N-methylmethylsulfonamido)benzofuran-3-carboxamide]
IC50 (HCV replicon genotype 1b; Hepatitis C virus, 96 h): 2.7 nM | IC50 (HCV replicon genotype 1a; Hepatitis C virus, 96 h): 5.3 nM

CNC(=O)c1c(-c2ccc(F)cc2)oc2cc(N(C)S(C)(=O)=O)c(-c3ccc4c(c3)-c3cc5ccccc5n3CC(F)CO4)cc12 (stereo not shown) [Compound 76, 5-(7-fluoro-7,8-dihydro-6H-benzo[2,3][1,5]oxazocino[5,4-a]indol-2-yl)-2-(4-fluorophenyl)-N-methyl-6-(N-methylmethylsulfonamido)benzofuran-3-carboxamide]
IC50 (HCV replicon genotype 1b; Hepatitis C virus, 96 h): 5.8 nM | IC50 (HCV replicon genotype 1a; Hepatitis C virus, 96 h): 4.5 nM

CNC(=O)c1c(-c2ccc(F)cc2)oc2cc(N3CCOC3=O)c(-c3ccc4c(n3)-c3cc5cc(F)ccc5n3CO4)cc12 [Compound 174]
IC50 (HCV replicon genotype 1b; Hepatitis C virus, 96 h): 4.7 nM | IC50 (HCV replicon genotype 1a; Hepatitis C virus, 96 h): 13 nM

CNC(=O)c1c(-c2ccc(F)cc2)oc2cc(N(C)S(C)(=O)=O)c(-c3ccc4c(c3)-c3cc5ccccc5n3C(C3CC3)O4)cc12 (stereo not shown) [Compound 132]
IC50 (HCV replicon genotype 1b; Hepatitis C virus, 96 h): 7.9 nM | IC50 (HCV replicon genotype 1a; Hepatitis C virus, 96 h): 4.8 nM

CNC(=O)c1c(-c2ccc(F)cc2)oc2cc(N(C)S(C)(=O)=O)c(-c3ccc4c(n3)-c3cc5c(F)cccc5n3C(CO)O4)cc12 (stereo not shown) [Compound 87, 5-(11-fluoro-6-(hydroxymethyl)-6H-pyrido[2′,3′:5,6][1,3]oxazino[3,4-a]indol-2-yl)-2-(4-fluorophenyl)-N-methyl-6-(N-methylmethylsulfonamido)benzofuran-3-carboxamide]
IC50 (HCV replicon genotype 1b; Hepatitis C virus, 96 h): 3.3 nM | IC50 (HCV replicon genotype 1a; Hepatitis C virus, 96 h): 3 nM

CNC(=O)c1c(-c2ccc(F)cc2)oc2cc(N(C)S(C)(=O)=O)c(-c3ccc4c(n3)-c3cc5c(Cl)cccc5n3CO4)cc12 [Compound 14]
IC50 (HCV replicon genotype 1b; Hepatitis C virus, 96 h): 6.2 nM | IC50 (HCV replicon genotype 1a; Hepatitis C virus, 96 h): 3 nM

CNC(=O)c1c(-c2ccc(F)cc2)oc2cc(N(C)S(C)(=O)=O)c(-c3ccc4c(n3)-c3cc5c(F)cccc5n3C3(COC3)O4)cc12 [Compound 97]
IC50 (HCV replicon genotype 1b; Hepatitis C virus, 96 h): 4.4 nM | IC50 (HCV replicon genotype 1a; Hepatitis C virus, 96 h): 2.9 nM

CNC(=O)c1c(-c2ccc(F)cc2)oc2cc(N(C)S(C)(=O)=O)c(-c3ccc4c(n3)-c3cc5c(F)cccc5n3C(CNC(C)C(=O)O)O4)cc12 (stereo not shown) [Compound 117]
IC50 (HCV replicon genotype 1b; Hepatitis C virus, 96 h): 7.5 nM | IC50 (HCV replicon genotype 1a; Hepatitis C virus, 96 h): 74 nM

CNC(=O)c1c(-c2ccc(F)cc2)oc2cc(N(C)S(C)(=O)=O)c(-c3ncc4c(n3)-c3cc5ccccc5n3CO4)cc12 [Compound 4]
IC50 (HCV replicon genotype 1b; Hepatitis C virus, 96 h): 1.3 nM | IC50 (HCV replicon genotype 1a; Hepatitis C virus, 96 h): 0.7 nM

CNC(=O)c1c(-c2ccc(F)cc2)oc2cc(N(C)S(C)(=O)=O)c(-c3ccc4c(c3)-c3nc5cccc(F)c5n3CO4)cc12 [Compound 134]
IC50 (HCV replicon genotype 1b; Hepatitis C virus, 96 h): 2.9 nM | IC50 (HCV replicon genotype 1a; Hepatitis C virus, 96 h): 4 nM
